Source: ChEMBL document CHEMBL5052836, “Interleukin-15 activity antagonist peptide” (2019)
Activity calls are given as the source filed them. The rule behind the calls is not given here.

Key:
[1] = Inhibition of cell proliferation in IL-15-induced mouse CTLL-2 cells measured after 72 hrs by MTT assay; assay type: functional, cell-based; conditions: CTLL-2, 72 h
Homo sapiens = species on record: Homo sapiens; experiment: Antagonist activity at IL-15Ralpha (unknown origin) assessed as inhibition of IL-15/IL-15Ralpha complex formation at 20 ug/ml using TMB as substrate incubated for 1 hr and measured after 1 hr by ELISA relative to control; conditions: filed as antagonist, dose 20.0 µg/ml
Synovial cell [2] = experiment: Inhibition of IL-15-induced TNF-alpha secretion in human synovial cells at 50 ug/ml and measured after 48 hrs by ELISA relative to control; assay type: functional, cell-based; conditions: dose 50.0 µg/ml
Synovial cell [3] = experiment: Inhibition of IL-15-induced IL-6 secretion in human synovial cells at 50 ug/ml and measured after 48 hrs by ELISA relative to control; assay type: functional, cell-based; conditions: dose 50.0 µg/ml

Row | inhibition (Homo sapiens) [%] | SMILES | IC50 [1] [µM] | inhibition (Synovial cell [2]) | inhibition (Synovial cell [3])
1 | – | CSCC[C@H](NC(=O)[C@@H](C)NC(=O)[C@@H](NC(=O)[C@@H](NC(=O)[C@@H](N)CCCCN)C(C)C)[C@@H](C)O)C(=O)N[C@@H](CCCCN)C(=O)N[C@H](CSSC[C@@H](NC(=O)[C@H](CCCCN)NC(=O)[C@H](CCSC)NC(=O)[C@@H](C)NC(=O)[C@@H](NC(=O)[C@@H](NC(=O)[C@@H](N)CCCCN)C(C)C)[C@@H](C)O)C(=O)N[C@@H](Cc1ccccc1)C(=O)N[C@@H](CC(C)C)C(=O)N[C@@H](CC(C)C)C(=O)O)C(=O)N[C@@H](Cc1ccccc1)C(=O)N[C@@H](CC(C)C)C(=O)N[C@@H](CC(C)C)C(=O)O | 56 | – | –
2 | 92 | CSCC[C@H](NC(=O)[C@@H](C)NC(=O)[C@@H](NC(=O)[C@@H](NC(=O)[C@@H](N)CCCCN)C(C)C)[C@@H](C)O)C(=O)N[C@@H](CCCCN)C(=O)N[C@@H](CS)C(=O)N[C@@H](Cc1ccccc1)C(=O)N[C@@H](CC(C)C)C(=O)N[C@@H](CC(C)C)C(=O)O | 28 | Active | Active
3 | 89 | CSCC[C@H](NC(=O)[C@@H](C)NC(=O)[C@@H](NC(=O)[C@@H](NC(=O)[C@H](N)CCCCN)C(C)C)[C@@H](C)O)C(=O)N[C@@H](CCCCN)C(=O)N[C@@H](CS)C(=O)N[C@@H](Cc1ccccc1)C(=O)N[C@@H](CC(C)C)C(=O)N[C@@H](CC(C)C)C(=O)O | 29 | Active | Active
4 | – | CSCC[C@H](NC(=O)[C@H](C)NC(=O)[C@@H](NC(=O)[C@@H](NC(=O)[C@@H](N)CCCCN)C(C)C)[C@@H](C)O)C(=O)N[C@H](CCCCN)C(=O)N[C@@H](CS)C(=O)N[C@@H](Cc1ccccc1)C(=O)N[C@@H](CC(C)C)C(=O)N[C@@H](CC(C)C)C(=O)O | 168 | – | –
5 | – | CSCC[C@H](NC(=O)[C@H](C)NC(=O)[C@@H](NC(=O)[C@@H](NC(=O)[C@@H](N)CCCCN)C(C)C)[C@@H](C)O)C(=O)N[C@@H](CCCCN)C(=O)N[C@@H](CS)C(=O)N[C@H](Cc1ccccc1)C(=O)N[C@@H](CC(C)C)C(=O)N[C@@H](CC(C)C)C(=O)O | 118 | – | –
6 | – | CSCC[C@H](NC(=O)[C@@H](C)NC(=O)[C@@H](NC(=O)[C@@H](NC(=O)[C@@H](N)CCCCN)C(C)C)[C@@H](C)O)C(=O)N[C@@H](CCCCN)C(=O)N[C@H](CS)C(=O)N[C@@H](Cc1ccccc1)C(=O)N[C@@H](CC(C)C)C(=O)N[C@@H](CC(C)C)C(=O)O | 296 | – | –
7 | 92 | CSCC[C@H](NC(=O)[C@@H](C)NC(=O)[C@@H](NC(=O)[C@@H](NC(=O)[C@H](N)CCCCN)C(C)C)[C@@H](C)O)C(=O)N[C@@H](CCCCN)C(=O)N[C@@H](CSSC[C@H](NC(=O)[C@H](CCCCN)NC(=O)[C@H](CCSC)NC(=O)[C@@H](C)NC(=O)[C@@H](NC(=O)[C@@H](NC(=O)[C@H](N)CCCCN)C(C)C)[C@@H](C)O)C(=O)N[C@@H](Cc1ccccc1)C(=O)N[C@@H](CC(C)C)C(=O)N[C@@H](CC(C)C)C(=O)O)C(=O)N[C@@H](Cc1ccccc1)C(=O)N[C@@H](CC(C)C)C(=O)N[C@@H](CC(C)C)C(=O)O | 12 | Active | Active
8 | 96 | CSCC[C@H](NC(=O)[C@@H](C)NC(=O)[C@@H](NC(=O)[C@@H](NC(=O)[C@@H](N)CCCCN)C(C)C)[C@@H](C)O)C(=O)N[C@@H](CCCCN)C(=O)N[C@@H](CSSC[C@H](NC(=O)[C@H](CCCCN)NC(=O)[C@H](CCSC)NC(=O)[C@@H](C)NC(=O)[C@@H](NC(=O)[C@@H](NC(=O)[C@@H](N)CCCCN)C(C)C)[C@@H](C)O)C(=O)N[C@@H](Cc1ccccc1)C(=O)N[C@@H](CC(C)C)C(=O)N[C@@H](CC(C)C)C(=O)O)C(=O)N[C@@H](Cc1ccccc1)C(=O)N[C@@H](CC(C)C)C(=O)N[C@@H](CC(C)C)C(=O)O | 8 | Active | Active
9 | – | CSCC[C@H](NC(=O)[C@H](C)NC(=O)[C@@H](NC(=O)[C@@H](NC(=O)[C@@H](N)CCCCN)C(C)C)[C@@H](C)O)C(=O)N[C@@H](CCCCN)C(=O)N[C@@H](CS)C(=O)N[C@@H](Cc1ccccc1)C(=O)N[C@@H](CC(C)C)C(=O)N[C@H](CC(C)C)C(=O)O | 133 | – | –
10 | 70 | CSCC[C@H](NC(=O)[C@H](C)NC(=O)[C@@H](NC(=O)[C@@H](NC(=O)[C@@H](N)CCCCN)C(C)C)[C@@H](C)O)C(=O)N[C@@H](CCCCN)C(=O)N[C@@H](CS)C(=O)N[C@@H](Cc1ccccc1)C(=O)N[C@@H](CC(C)C)C(=O)N[C@@H](CC(C)C)C(=O)O | 130 | – | –
11 | – | CSCC[C@@H](NC(=O)[C@H](C)NC(=O)[C@@H](NC(=O)[C@@H](NC(=O)[C@@H](N)CCCCN)C(C)C)[C@@H](C)O)C(=O)N[C@@H](CCCCN)C(=O)N[C@@H](CS)C(=O)N[C@@H](Cc1ccccc1)C(=O)N[C@@H](CC(C)C)C(=O)N[C@@H](CC(C)C)C(=O)O | 292 | – | –
12 | – | CSCC[C@H](NC(=O)[C@H](C)NC(=O)[C@H](NC(=O)[C@@H](NC(=O)[C@@H](N)CCCCN)C(C)C)[C@H](C)O)C(=O)N[C@@H](CCCCN)C(=O)N[C@@H](CS)C(=O)N[C@@H](Cc1ccccc1)C(=O)N[C@@H](CC(C)C)C(=O)N[C@@H](CC(C)C)C(=O)O | 159 | – | –
13 | – | CSCC[C@H](NC(=O)[C@H](C)NC(=O)[C@@H](NC(=O)[C@@H](NC(=O)[C@H](N)CCCCN)C(C)C)[C@@H](C)O)C(=O)N[C@@H](CCCCN)C(=O)N[C@@H](CS)C(=O)N[C@@H](Cc1ccccc1)C(=O)N[C@@H](CC(C)C)C(=O)N[C@@H](CC(C)C)C(=O)O | 100 | – | –
14 | – | CSCC[C@H](NC(=O)[C@H](C)NC(=O)[C@@H](NC(=O)[C@@H](NC(=O)[C@@H](N)CCCCN)C(C)C)[C@@H](C)O)C(=O)N[C@@H](CCCCN)C(=O)N[C@H](CS)C(=O)N[C@@H](Cc1ccccc1)C(=O)N[C@@H](CC(C)C)C(=O)N[C@@H](CC(C)C)C(=O)O | 103 | – | –
15 | – | CSCC[C@H](NC(=O)[C@H](C)NC(=O)[C@@H](NC(=O)[C@H](NC(=O)[C@@H](N)CCCCN)C(C)C)[C@@H](C)O)C(=O)N[C@@H](CCCCN)C(=O)N[C@@H](CS)C(=O)N[C@@H](Cc1ccccc1)C(=O)N[C@@H](CC(C)C)C(=O)N[C@@H](CC(C)C)C(=O)O | 142 | – | –
16 | – | CSCC[C@H](NC(=O)[C@H](C)NC(=O)[C@@H](NC(=O)[C@@H](NC(=O)[C@@H](N)CCCCN)C(C)C)[C@@H](C)O)C(=O)N[C@@H](CCCCN)C(=O)N[C@@H](CS)C(=O)N[C@@H](Cc1ccccc1)C(=O)N[C@H](CC(C)C)C(=O)N[C@@H](CC(C)C)C(=O)O | 134 | – | –
